Data on 29 compounds can be found in US7589104B2, “Tricyclic-bridged piperidinyline derivatives as §-opioid modulators” (Janssen Pharmaceutica NV, priority 2004, dated 2009).

Where two headings read alike, the source gives them in different places. Some results are limits rather than exact numbers.

One assay has as its target T1, delta opioid receptor (Rattus norvegicus, UniProt P33533).
T1 construct: from tissue; host or cells: forebrain of male Wistar rats (Charles River)
Nature of the assay: Rat Brain Delta Opioid Receptor Binding Assay.

Another assay addresses T2, mu opioid receptor (Rattus norvegicus, UniProt P33535).
T2 construct: Following incubation with the mu selective peptide ligand, ˜0.8 nM [^3H]DAMGO; from tissue; host or cells: forebrain of male Wistar rats (Charles River)
Nature of the assay: Rat Brain Mu Opioid Receptor Binding Assay.

Setting [1] is: rat forebrain membranes, [3H]DAMGO, read-out: mu (Ki).
The mark [2] stands for this setting: rat forebrain membranes, [3H]DPDPE or [3H]naltrindole, read-out: delta (Ki).

T2 sequence (P33535 whole entry): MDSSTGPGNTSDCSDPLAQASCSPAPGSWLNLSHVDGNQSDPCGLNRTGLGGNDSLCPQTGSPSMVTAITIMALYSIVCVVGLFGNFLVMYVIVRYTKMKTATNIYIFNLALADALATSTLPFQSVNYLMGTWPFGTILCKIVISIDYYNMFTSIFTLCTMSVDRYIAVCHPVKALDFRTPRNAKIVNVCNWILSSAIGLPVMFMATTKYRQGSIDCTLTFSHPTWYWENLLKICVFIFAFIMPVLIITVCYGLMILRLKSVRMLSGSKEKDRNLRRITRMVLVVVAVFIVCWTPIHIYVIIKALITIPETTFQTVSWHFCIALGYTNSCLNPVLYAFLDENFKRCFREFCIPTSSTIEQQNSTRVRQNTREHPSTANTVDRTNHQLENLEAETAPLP
T1 sequence (P33533 whole entry): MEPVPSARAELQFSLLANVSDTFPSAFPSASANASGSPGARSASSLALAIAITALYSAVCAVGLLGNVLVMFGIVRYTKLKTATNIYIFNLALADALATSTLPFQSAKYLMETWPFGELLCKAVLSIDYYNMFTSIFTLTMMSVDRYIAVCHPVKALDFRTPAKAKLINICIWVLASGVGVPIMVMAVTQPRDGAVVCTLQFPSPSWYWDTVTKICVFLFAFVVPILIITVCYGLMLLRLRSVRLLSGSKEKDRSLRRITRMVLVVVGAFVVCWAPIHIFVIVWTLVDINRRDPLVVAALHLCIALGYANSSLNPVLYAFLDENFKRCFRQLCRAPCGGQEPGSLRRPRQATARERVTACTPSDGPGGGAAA

With `CC(=O)Nc1ccccc1-c1ccc2c(c1)Oc1ccccc1C2C1CC2CCC(C1)N2` (stereo not shown) [Compound 7b, N-{2-[9-(8-Aza-bicyclo[3.2.1]oct-3-yl)-9H-xanthen-3-yl]-phenyl}-acetamide], the Ki on delta opioid receptor was determined as 426 nM; at mu opioid receptor it was 6380 nM.
`CCN(CC)C(=O)c1ccc2c(c1)Oc1c(-c3ccccc3)cccc1C2C1CC2CCC(C1)N2` (stereo not shown) [Compound 7d, 9-(8-Aza-bicyclo[3.2.1]oct-3-yl)-5-phenyl-9H-xanthene-3-carboxylic acid diethylamide]: the Ki on delta opioid receptor was 91 nM; at mu opioid receptor (setting [1]) it was 8200 nM.
On to `CCN(CC)C(=O)c1ccc2c(c1)Oc1ccc(F)cc1C2C1CC2CCC(C1)N2` (stereo not shown) [Compound 7e, 9-(8-Aza-bicyclo[3.2.1]oct-3-yl)-7-fluoro-9H-xanthene-3-carboxylic acid diethylamide], for which the Ki on delta opioid receptor was determined as 294 nM; on mu opioid receptor, 44000 nM.
With `CCN(CC)C(=O)c1ccc2c(c1)Oc1ccc(Br)cc1C2C1CC2CCC(C1)N2` (stereo not shown) [Compound 7f, 9-(8-Aza-bicyclo[3.2.1]oct-3-yl)-7-bromo-9H-xanthene-3-carboxylic acid diethylamide], the Ki on delta opioid receptor amounted to 174 nM; at mu opioid receptor it was 1750 nM.
As for `COc1cccc2c1Oc1cc(-c3cccnc3)ccc1C2C1CC2CCC(C1)N2` (stereo not shown) [Compound 7k, 3-(5-Methoxy-3-pyridin-3-yl-9H-xanthen-9-yl)-8-aza-bicyclo[3.2.1]octane], the Ki at delta opioid receptor (setting [2]) is 655 nM; at mu opioid receptor (setting [1]), 7740 nM.
Consider `c1ccc2c(c1)Oc1cc(-c3cnc4ccccc4c3)ccc1C2C1CC2CCC(C1)N2` (stereo not shown) [Compound 8b, 3-[9-(8-Aza-bicyclo[3.2.1]oct-3-yl)-9H-xanthen-3-yl]-quinoline], for which the Ki is 4860 nM on delta opioid receptor and 27700 nM at mu opioid receptor.
Taken in the same sequence, the figures for `Oc1cccc2c1Oc1cc(-c3cccnc3)ccc1C2C1CC2CCC(C1)N2` (stereo not shown) [Compound 8k, 9-(8-Aza-bicyclo[3.2.1]oct-3-yl)-6-pyridin-3-yl-9H-xanthen-4-ol] were 9.61 nM and 27.2 nM.
Taken in the same sequence, the figures for `CCN(CC)C(=O)c1ccc2c(c1)Oc1ccccc1C2C1CC2CCC(C1)N2` (stereo not shown) [Compound 9a, 9-(8-Aza-bicyclo[3.2.1]oct-3-yl)-9H-xanthene-3-carboxylic acid diethylamide] were 140 nM and 6450 nM.
Consider `c1cncc(-c2ccc3c(c2)Oc2ccccc2C3C2CC3CCC(C2)N3Cc2cccs2)c1` (stereo not shown) [Compound 9b, 3-(3-Pyridin-3-yl-9H-xanthen-9-yl)-8-thiophen-2-ylmethyl-8-aza-bicyclo[3.2.1]octane], for which the Ki at delta opioid receptor turned out to be 182 nM; at mu opioid receptor it was 1610 nM.
Taken in the same sequence, the figures for `c1ccc(CN2C3CCC2CC(C2c4ccccc4Oc4cc(-c5cccnc5)ccc42)C3)nc1` (stereo not shown) [Compound 10b, 8-Pyridin-2-ylmethyl-3-(3-pyridin-3-yl-9H-xanthen-9-yl)-8-aza-bicyclo[3.2.1]octane] were 211 nM and 350 nM.
As to `c1ccc(CN2C3CCC2CC(C2c4ccccc4Oc4cc(-c5cccnc5)ccc42)C3)cc1` (stereo not shown) [Compound 11b, 8-Benzyl-3-(3-pyridin-3-yl-9H-xanthen-9-yl)-8-aza-bicyclo[3.2.1]octane], the Ki on delta opioid receptor worked out at 70.4 nM; at mu opioid receptor, 955 nM.
Taken in the same sequence, the figures for `CCN(CC)C(=O)c1ccc2c(c1)Oc1ccccc1C2C1CC2CCC(C1)N2CCc1ccccc1` (stereo not shown) [Compound 12a, 9-(8-Phenethyl-8-aza-bicyclo[3.2.1]oct-3-yl)-9H-xanthene-3-carboxylic acid diethylamide] were 200 nM and 667 nM.
On the same counts, the results for `c1ccc(CCN2C3CCC2CC(C2c4ccccc4Oc4cc(-c5cccnc5)ccc42)C3)cc1` (stereo not shown) [Compound 12b, 8-Phenethyl-3-(3-pyridin-3-yl-9H-xanthen-9-yl)-8-aza-bicyclo[3.2.1]octane] are 794 nM and 293 nM.
`CCN(CC)C(=O)c1ccc2c(c1)Oc1ccccc1C2C1CC2CCC(C1)N2Cc1ccco1` (stereo not shown) [Compound 13a, 9-(8-Furan-2-ylmethyl-8-aza-bicyclo[3.2.1]oct-3-yl)-9H-xanthene-3-carboxylic acid diethylamide]: the figures for the Ki at delta opioid receptor and on mu opioid receptor were 42 nM and 3020 nM, respectively.
For the compound `CC(=O)Nc1ccccc1-c1ccc2c(c1)Oc1ccccc1C2C1CC2CCC(C1)N2Cc1ccoc1` (stereo not shown) [Compound 13b, N-{2-[9-(8-Furan-3-ylmethyl-8-aza-bicyclo[3.2.1]oct-3-yl)-9H-xanthen-3-yl]-phenyl}-acetamide], the Ki on delta opioid receptor came to 38.7 nM; on mu opioid receptor, 1490 nM.
As to `CC(=O)Nc1ccccc1-c1ccc2c(c1)Oc1ccccc1C2C1CC2CCC(C1)N2Cc1cccs1` (stereo not shown) [Compound 14b, N-{2-[9-(8-Thiophen-2-ylmethyl-8-aza-bicyclo[3.2.1]oct-3-yl)-9H-xanthen-3-yl]-phenyl}-acetamide], the results for the Ki at delta opioid receptor and at mu opioid receptor were 78.1 nM and 2150 nM, respectively.
Turning to `COc1cccc2c1Oc1cc(Br)ccc1C2C1CC2CCC(C1)N2` (stereo not shown) [Compound 14k, 3-(3-Bromo-5-methoxy-9H-xanthen-9-yl)-8-aza-bicyclo[3.2.1]octane], the figures for the Ki on delta opioid receptor and at mu opioid receptor were 2880 nM and 7380 nM, respectively.
On the same counts, the results for `CC(=O)Nc1ccccc1-c1ccc2c(c1)Oc1ccccc1C2C1CC2CCC(C1)N2Cc1ccccn1` (stereo not shown) [Compound 15b, N-{2-[9-(8-Pyridin-2-ylmethyl-8-aza-bicyclo[3.2.1]oct-3-yl)-9H-xanthen-3-yl]-phenyl}-acetamide] are 102 nM and 947 nM.
Taken in the same sequence, the figures for `CCN(CC)C(=O)c1ccc2c(c1)Oc1ccccc1C2C1CC2CCC(C1)N2Cc1ncc[nH]1` (stereo not shown) [Compound 16a, 9-[8-(1H-Imidazol-2-ylmethyl)-8-aza-bicyclo[3.2.1]oct-3-yl]-9H-xanthene-3-carboxylic acid diethylamide] were 114 nM and 2000 nM.
Turning to `CC(=O)Nc1ccccc1-c1ccc2c(c1)Oc1ccccc1C2C1CC2CCC(C1)N2Cc1ccccc1` (stereo not shown) [Compound 16b, N-{2-[9-(8-Benzyl-8-aza-bicyclo[3.2.1]oct-3-yl)-9H-xanthen-3-yl]-phenyl}-acetamide], the Ki on delta opioid receptor and at mu opioid receptor was above 10000 nM in each case.
Take `CCN(CC)C(=O)c1ccc2c(c1)Oc1ccccc1C2C1CC2CCC(C1)N2C` (stereo not shown) [Compound 17a, 9-(8-Methyl-8-aza-bicyclo[3.2.1]oct-3-yl)-9H-xanthene-3-carboxylic acid diethylamide]: the Ki on delta opioid receptor and at mu opioid receptor was above 10000 nM each time.
On to `CC(=O)Nc1ccccc1-c1ccc2c(c1)Oc1ccccc1C2C1CC2CCC(C1)N2CCc1ccccc1` (stereo not shown) [Compound 17b, N-{2-[9-(8-Phenethyl-8-aza-bicyclo[3.2.1]oct-3-yl)-9H-xanthen-3-yl]-phenyl}-acetamide], for which the Ki on delta opioid receptor worked out at 64.8 nM; at mu opioid receptor (setting [1]), 116 nM.
In the case of `C=CCN1C2CCC1CC(C1c3ccccc3Oc3cc(-c4ccccc4NC(C)=O)ccc31)C2` (stereo not shown) [Compound 18b, N-{2-[9-(8-Allyl-8-aza-bicyclo[3.2.1]oct-3-yl)-9H-xanthen-3-yl]-phenyl}-acetamide], the Ki at delta opioid receptor (setting [2]) was determined as 408 nM; on mu opioid receptor (setting [1]), 3200 nM.
As for `c1ccc2c(c1)Oc1cc(-c3ccncc3)ccc1C2C1CC2CCC(C1)N2` (stereo not shown) [Compound 20b, 3-(3-Pyridin-4-yl-9H-xanthen-9-yl)-8-aza-bicyclo[3.2.1]octane], the Ki on delta opioid receptor was 194 nM; at mu opioid receptor it was 3490 nM.
For `c1csc(CN2C3CCC2CC(C2c4ccccc4Oc4cc(-c5ccncc5)ccc42)C3)c1` (stereo not shown) [Compound 21b, 3-(3-Pyridin-4-yl-9H-xanthen-9-yl)-8-thiophen-2-ylmethyl-8-aza-bicyclo[3.2.1]octane], the figures for the Ki at delta opioid receptor and on mu opioid receptor were 98 nM and 930 nM, respectively.
On the same counts, the results for `c1ccc(CN2C3CCC2CC(C2c4ccccc4Oc4cc(-c5ccncc5)ccc42)C3)nc1` (stereo not shown) [Compound 22b, 8-Pyridin-2-ylmethyl-3-(3-pyridin-4-yl-9H-xanthen-9-yl)-8-aza-bicyclo[3.2.1]octane] are 71.6 nM and 305 nM.
Taken in the same sequence, the figures for `c1ccc(CN2C3CCC2CC(C2c4ccccc4Oc4cc(-c5ccncc5)ccc42)C3)cc1` (stereo not shown) [Compound 23b, 8-Benzyl-3-(3-pyridin-4-yl-9H-xanthen-9-yl)-8-aza-bicyclo[3.2.1]octane] were 99.7 nM and 890 nM.
As to `c1ccc(CCN2C3CCC2CC(C2c4ccccc4Oc4cc(-c5ccncc5)ccc42)C3)cc1` (stereo not shown) [Compound 24b, 8-Phenethyl-3-(3-pyridin-4-yl-9H-xanthen-9-yl)-8-aza-bicyclo[3.2.1]octane], the Ki worked out at 1590 nM on delta opioid receptor and 196 nM on mu opioid receptor.
Regarding `c1ccc2c(c1)Oc1cc(-c3ccncc3)ccc1C2C1CC2CCC(C1)N2Cc1ccoc1` (stereo not shown) [Compound 25b, 8-Furan-3-ylmethyl-3-(3-pyridin-4-yl-9H-xanthen-9-yl)-8-aza-bicyclo[3.2.1]octane], the Ki is 22.4 nM at delta opioid receptor and 775 nM on mu opioid receptor.
